Activity calls are given as the source filed them.
Tests used:
Type in all cases: functional, cell-based
Leukemia cell [1] = test: Downregulation of Fosl2 mRNA expression in osteoclasts of human CSF1-induced mouse primary bone marrow derived acute myeloid leukemia cells at 250 nM measured by RT-qPCR analysis
Leukemia cell [2] = test: Effect on osteoclast differentiation in human CSF1-induced mouse primary bone marrow derived acute myeloid leukemia cells at 250 nM assessed as reduction in PU.1 enrichment at PU.1 enhancers near Nfatc1 measured by Conventional ChIP analysis
Leukemia cell [3] = test: Effect on osteoclast differentiation in human CSF1-induced mouse primary bone marrow derived acute myeloid leukemia cells at 250 nM assessed as reduction in PU.1 enrichment at PU.1 enhancers near d Fosl2 measured by Conventional ChIP analysis
Leukemia cell [4] = test: Downregulation of Nfatc1 mRNA expression in osteoclasts of human CSF1-induced mouse primary bone marrow derived acute myeloid leukemia cells at 250 nM measured by RT-qPCR analysis

Measured: Activity

Cc1sc2c(c1C)C(c1ccc(Cl)cc1)=N[C@@H](CC(=O)OC(C)(C)C)c1nnc(C)n1-2
active: Leukemia cell [1] | Leukemia cell [2] | Leukemia cell [3] | Leukemia cell [4]

From ChEMBL document CHEMBL5674879, “Enhancer variants reveal a conserved transcription factor network governed by PU.1 during osteoclast differentiation” (Bone Res, 2018)
